Reference: US20160279079A1, “COMPOSITIONS AND METHODS FOR TREATING BONE DISEASES” (INDIANA UNIVERSITY RESEARCH AND TECHNOLOGY CORPORATION, priority 2013, published 2016)
“Also recorded” adds a separate entry of the source.

Tests used:
MC3T3 E1-14 cells = assay: Mineralization assay (Alizarin Red S staining); assay type: cell-based, mouse; conditions: 3-week incubation in an osteogenic medium
Procedure: METHOD EXAMPLE. Mineralization assay. Mineralization of extracellular matrix was assayed by Alizarin Red S staining. MC3T3-E1 cells were plated in 6-well plates. When cells were confluent, 50 μg/ml of ascorbic acid (Wako Chemicals, Richmond, Va., USA) and 5 mM β-glycerophosphate (Sigma) were added. The medium was changed every other day, and staining was conducted after 3 week. Cells were washed with PBS twice and fixed with 60% isopropanol for 1 min at room temperature, followed by rehydration with distilled water for 3 min at room temperature. They were stained with 1% Alizarin red S (Sigma) for 3 min and washed with distilled water.
METHOD EXAMPLE. Enhanced mineralization of MC3T3 E1-14 cells by salubrinal. Prior to examining the effects of salubrinal on osteoclastogenesis, its effects on development of osteoblasts was tested, focusing on cell viability, phosphorylation of eIF2α (p-eIF2α), expression of ATF4 and osteocalcin, and matrix mineralization. […] The enhanced mineralization was also observed in non-clonal MC3T3 E1 cells (Supplementary FIG. S1).

p-p38 MAPK = assay: Western immunoblotting, p-p38 MAPK in RAW264.7 cells; assay type: cell-based, mouse; conditions: 20 μM salubrinal
Procedure: METHOD EXAMPLE. Western Immunoblotting. Cells were lysed in a radioimmunoprecipitation assay (RIPA) buffer containing protease inhibitors (Santa Cruz Biotechnology, Santa Cruz, Calif., USA) and phosphatase inhibitors (Calbiochem, Billerica, Mass., USA). Isolated proteins were fractionated using 10-15% SDS gels and electro-transferred to Immobilon-P membranes (Millipore, Billerica, Mass., USA). The membrane was incubated for 1 h with primary antibodies followed by 45 min incubation with goat anti-rabbit or anti-mouse IgG conjugated with horseradish peroxidase (Cell Signaling, Danvers, Mass., USA). We used antibodies against ATF4, NFATcl (Santa Cruz), p-eIF2α (Thermo Scientific, Waltham, Mass., USA), eIF2α, caspase 3, cleaved caspase 3, p38 and p-p38 mitogen activated protein kinase (MAPK), extracellular signal-regulated kinase (ERK) and p-ERK, nuclear factor kappa B (NFκB) p65 and p-NFκB p65 (Cell Signaling), and β-actin (Sigma). Protein levels were assayed using a SuperSignal west femto maximum sensitivity substrate (Thermo Scientific), and signal intensities were quantified with a luminescent image analyzer (LAS-3000, Fuji Film, Tokyo, Japan).
METHOD EXAMPLE. Temporal profile of p-eIF2α and NFATcl. […] Note that the normalized level of “1” in FIG. 6C was defined as the level for the cells that were not treated with RANKL without administration of guanabenz.

`O=C(/C=C/c1ccccc1)NC(NC(=S)Nc1cccc2cccnc12)C(Cl)(Cl)Cl` (centres unmarked) [salubrinal] was tested, and the “mineralization (Alizarin red S staining area)” value (MC3T3 E1-14 cells) was “enhanced mineralization of MC3T3 E1-14 cells in a dose dependent manner” and the “phosphorylation level of p38 MAPK” value (p-p38 MAPK) was “did not significantly alter; also recorded: no detectable changes”.
